# Reference: PubChem BioAssay AID2060909 (Molecular Pharmacology Branch, DTP, NCI, 2025)
# Test system: 362531-283-R-J2-PDC complex spheroid viability
# Assay: Anticancer human tumor 362531-283-R-J2-PDC patient-derived colon adenocarcinoma cell line growth inhibition [RAS]
# Settings: for IC50: curve of first compound; for viability, T/C: stronger effect = lower value
# In short: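 Agents were tested in combination matrices in half-log decrements from a top concentration at or near clinical Cmax (10 microM if undetermined). Targets were multi-cell spheroids of tumour lines plus HUVEC and MSC stromal cells.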
# [1] = second compound 0.000949 µM, first compound 0.0316 µM
# [2] = second compound 0.000949 µM, first compound 0.1 µM
# [3] = second compound 0.000949 µM, first compound 0.316 µM
# [4] = second compound 0.000949 µM, first compound 1 µM
# [5] = second compound 0.000949 µM, first compound 3.16 µM
# [6] = second compound 0.000949 µM, first compound 10 µM
# [7] = second compound 0.003 µM, first compound 0.0316 µM
# [8] = second compound 0.003 µM, first compound 0.1 µM
# [9] = second compound 0.003 µM, first compound 0.316 µM
# [10] = second compound 0.003 µM, first compound 1 µM
# [11] = second compound 0.003 µM, first compound 3.16 µM
# [12] = second compound 0.003 µM, first compound 10 µM
# [13] = second compound 0.00949 µM, first compound 0.0316 µM
# [14] = second compound 0.00949 µM, first compound 0.1 µM
# [15] = second compound 0.00949 µM, first compound 0.316 µM
# [16] = second compound 0.00949 µM, first compound 1 µM
# [17] = second compound 0.00949 µM, first compound 3.16 µM
# [18] = second compound 0.00949 µM, first compound 10 µM
# [19] = second compound 0.03 µM, first compound 0.0316 µM
# [20] = second compound 0.03 µM, first compound 0.1 µM
# [21] = second compound 0.03 µM, first compound 0.316 µM
# [22] = second compound 0.03 µM, first compound 1 µM
# [23] = second compound 0.03 µM, first compound 3.16 µM
# [24] = second compound 0.03 µM, first compound 10 µM
# [25] = second compound 0.0949 µM, first compound 0.0316 µM
# [26] = second compound 0.0949 µM, first compound 0.1 µM
# [27] = second compound 0.0949 µM, first compound 0.316 µM
# [28] = second compound 0.0949 µM, first compound 1 µM
# [29] = second compound 0.0949 µM, first compound 3.16 µM
# [30] = second compound 0.0949 µM, first compound 10 µM
# [31] = second compound 0.3 µM, first compound 0.0316 µM
# [32] = second compound 0.3 µM, first compound 0.1 µM
# [33] = second compound 0.3 µM, first compound 0.316 µM
# [34] = second compound 0.3 µM, first compound 1 µM
# [35] = second compound 0.3 µM, first compound 3.16 µM
# [36] = second compound 0.3 µM, first compound 10 µM
# 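Note: spheroids exposed to the agents for 7 days before readout.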
# 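Throughout, for viability, T/C: luminescence viability as percent of DMSO vehicle control wells.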
smiles,measurement,setting,value
CC(C)NCC(C(=O)N1CCN(c2ncnc3c2C(C)CC3O)CC1)c1ccc(Cl)cc1 (stereo unspecified) + CCn1c(-c2cccnc2C(C)OC)c2c3cc(ccc31)N1CCOC(CC(NC(=O)C(C(C)C)N(C)C(=O)C3(F)CCN(C(=O)C#CC(C)(C)N(C)C)CC3)C(=O)N3CCCC(N3)C(=O)OCC(C)(C)C2)C1,IC50,second compound 0.000949 µM,> 10 µM
same,IC50,second compound 0.003 µM,> 10 µM
same,IC50,second compound 0.00949 µM,> 10 µM
same,IC50,second compound 0.03 µM,> 10 µM
same,IC50,second compound 0.0949 µM,> 10 µM
same,IC50,second compound 0.3 µM,> 10 µM
same,"viability, T/C",[1],97.8%
same,"viability, T/C",[2],106%
same,"viability, T/C",[3],91.4%
same,"viability, T/C",[4],94.4%
same,"viability, T/C",[5],101%
same,"viability, T/C",[6],93.5%
same,"viability, T/C",[7],103%
same,"viability, T/C",[8],105%
same,"viability, T/C",[9],94.4%
same,"viability, T/C",[10],92.9%
same,"viability, T/C",[11],94.1%
same,"viability, T/C",[12],101%
same,"viability, T/C",[13],92.9%
same,"viability, T/C",[14],100%
same,"viability, T/C",[15],95%
same,"viability, T/C",[16],98.8%
same,"viability, T/C",[17],98.3%
same,"viability, T/C",[18],99%
same,"viability, T/C",[19],104%
same,"viability, T/C",[20],87.4%
same,"viability, T/C",[21],96.7%
same,"viability, T/C",[22],86.2%
same,"viability, T/C",[23],97.3%
same,"viability, T/C",[24],100%
same,"viability, T/C",[25],92.2%
same,"viability, T/C",[26],91.1%
same,"viability, T/C",[27],103%
same,"viability, T/C",[28],88.1%
same,"viability, T/C",[29],94.9%
same,"viability, T/C",[30],94.3%
same,"viability, T/C",[31],90.8%
same,"viability, T/C",[32],94.1%
same,"viability, T/C",[33],97.8%
same,"viability, T/C",[34],91.9%
same,"viability, T/C",[35],98.9%
same,"viability, T/C",[36],92%
CC(C)n1nc(-c2ccc3oc(N)nc3c2)c2c(N)ncnc21 + CCn1c(-c2cccnc2C(C)OC)c2c3cc(ccc31)N1CCOC(CC(NC(=O)C(C(C)C)N(C)C(=O)C3(F)CCN(C(=O)C#CC(C)(C)N(C)C)CC3)C(=O)N3CCCC(N3)C(=O)OCC(C)(C)C2)C1,IC50,second compound 0.000949 µM,0.0708 µM
same,IC50,second compound 0.003 µM,0.0857 µM
same,IC50,second compound 0.00949 µM,0.0523 µM
same,IC50,second compound 0.03 µM,0.0686 µM
same,IC50,second compound 0.0949 µM,0.0733 µM
same,IC50,second compound 0.3 µM,0.0654 µM
same,"viability, T/C","second compound 0.000949 µM, first compound 0.000316 µM",95.5%
same,"viability, T/C","second compound 0.000949 µM, first compound 0.001 µM",98.7%
same,"viability, T/C","second compound 0.000949 µM, first compound 0.00316 µM",108%
same,"viability, T/C","second compound 0.000949 µM, first compound 0.01 µM",96.2%
same,"viability, T/C",[1],75%
same,"viability, T/C",[2],39.4%
same,"viability, T/C","second compound 0.003 µM, first compound 0.000316 µM",99.9%
same,"viability, T/C","second compound 0.003 µM, first compound 0.001 µM",92.8%
same,"viability, T/C","second compound 0.003 µM, first compound 0.00316 µM",102%
same,"viability, T/C","second compound 0.003 µM, first compound 0.01 µM",92.2%
same,"viability, T/C",[7],74.5%
same,"viability, T/C",[8],46.2%
same,"viability, T/C","second compound 0.00949 µM, first compound 0.000316 µM",98.9%
same,"viability, T/C","second compound 0.00949 µM, first compound 0.001 µM",108%
same,"viability, T/C","second compound 0.00949 µM, first compound 0.00316 µM",92.9%
same,"viability, T/C","second compound 0.00949 µM, first compound 0.01 µM",114%
same,"viability, T/C",[13],57.3%
same,"viability, T/C",[14],40.6%
same,"viability, T/C","second compound 0.03 µM, first compound 0.000316 µM",103%
same,"viability, T/C","second compound 0.03 µM, first compound 0.001 µM",93%
same,"viability, T/C","second compound 0.03 µM, first compound 0.00316 µM",107%
same,"viability, T/C","second compound 0.03 µM, first compound 0.01 µM",95.5%
same,"viability, T/C",[19],63.9%
same,"viability, T/C",[20],43.2%
same,"viability, T/C","second compound 0.0949 µM, first compound 0.000316 µM",90.4%
same,"viability, T/C","second compound 0.0949 µM, first compound 0.001 µM",93.9%
same,"viability, T/C","second compound 0.0949 µM, first compound 0.00316 µM",95.5%
same,"viability, T/C","second compound 0.0949 µM, first compound 0.01 µM",106%
same,"viability, T/C",[25],68.7%
same,"viability, T/C",[26],43.1%
same,"viability, T/C","second compound 0.3 µM, first compound 0.000316 µM",87.9%
same,"viability, T/C","second compound 0.3 µM, first compound 0.001 µM",105%
same,"viability, T/C","second compound 0.3 µM, first compound 0.00316 µM",103%
same,"viability, T/C","second compound 0.3 µM, first compound 0.01 µM",103%
same,"viability, T/C",[31],71.8%
same,"viability, T/C",[32],37.3%
C[C@@H](NC(=O)c1ncnc(N)c1Cl)c1ncc(C(=O)Nc2cc(C(F)(F)F)c(Cl)cn2)s1 + CCn1c(-c2cccnc2C(C)OC)c2c3cc(ccc31)N1CCOC(CC(NC(=O)C(C(C)C)N(C)C(=O)C3(F)CCN(C(=O)C#CC(C)(C)N(C)C)CC3)C(=O)N3CCCC(N3)C(=O)OCC(C)(C)C2)C1,IC50,second compound 0.000949 µM,> 10 µM
same,IC50,second compound 0.003 µM,> 10 µM
same,IC50,second compound 0.00949 µM,> 10 µM
same,IC50,second compound 0.03 µM,> 10 µM
same,IC50,second compound 0.0949 µM,> 10 µM
same,IC50,second compound 0.3 µM,> 10 µM
same,"viability, T/C",[1],111%
same,"viability, T/C",[2],107%
same,"viability, T/C",[3],91.5%
same,"viability, T/C",[4],106%
same,"viability, T/C",[5],73.3%
same,"viability, T/C",[6],61.4%
same,"viability, T/C",[7],112%
same,"viability, T/C",[8],94%
same,"viability, T/C",[9],109%
same,"viability, T/C",[10],92.5%
same,"viability, T/C",[11],79.2%
same,"viability, T/C",[12],66%
same,"viability, T/C",[13],105%
same,"viability, T/C",[14],108%
same,"viability, T/C",[15],87.1%
same,"viability, T/C",[16],88.5%
same,"viability, T/C",[17],82.1%
same,"viability, T/C",[18],73.6%
same,"viability, T/C",[19],107%
same,"viability, T/C",[20],99.3%
same,"viability, T/C",[21],105%
same,"viability, T/C",[22],91.7%
same,"viability, T/C",[23],89.7%
same,"viability, T/C",[24],64.9%
same,"viability, T/C",[25],97.9%
same,"viability, T/C",[26],96.1%
same,"viability, T/C",[27],89.5%
same,"viability, T/C",[28],91.4%
same,"viability, T/C",[29],87.7%
same,"viability, T/C",[30],73.9%
same,"viability, T/C",[31],103%
same,"viability, T/C",[32],101%
same,"viability, T/C",[33],85.4%
same,"viability, T/C",[34],87.1%
same,"viability, T/C",[35],91.9%
same,"viability, T/C",[36],80.1%
